According to patent publication US20190100549A1, “FLAVONOIDE-TYPE COMPOUNDS BEARING AN O-RHAMNOSYL RESIDUE” (Universitaet Hamburg, priority 2016, published 2019):
Where “and” joins values, the source holds several entries; their conditions need not be identical. Equal entries are not always repeated.

Assays:
Type in all cases: cell-based
STAT3 = STAT3 activity in HeLa-STAT3-luc cells stimulated with IFN-γ (luciferase)
Experimental: HeLa-STAT3-luc cells were stably transfected with the plasmid 4xM67 pTATA TK-Luc. Cells (20×10^3 cells/ml) were seeded 96-well plate the day before the assay. Then the cells were treated with the test substances for 15 min and then stimulated with IFN-γ 25 IU/ml. After 6 h, the cells were washed twice with PBS and lysed in 50 μl lysis buffer containing 25 mM Tris-phosphate (pH 7.8), 8 mM MgCl2, 1 mM DTT, 1% Triton X-100, and 7% glycerol during 15 min at RT in a horizontal shaker. Luciferase activity was measured using GloMax 96 microplate luminometer (Promega) following the instructions of the luciferase assay kit (Promega, Madison, Wis., USA). […] The experiments for each concentration of the test items were done in triplicate wells.

NF-κB = NF-κB activity in NIH3T3-KBF-Luc cells stimulated with TNFα (luciferase); conditions: for % Activation: TNFα alone = 100
Experimental: NIH3T3-KBF-Luc cells were stably transfected with the KBF-Luc plasmid (Sancho (2003) Mol Pharmacol 63:429-438), which contains three copies of NF-κB binding site (from major histocompatibility complex promoter), fused to a minimal simian virus 40 promoter driving the luciferase gene. Cells (1×10^4 for NIH3T3-KBF-Luc) were seeded the day before the assay on 96-well plate. Then the cells were treated with the test substances for 15 min and then stimulated with 30 ng/ml of TNFα. After 6 h, the cells were washed twice with PBS and lysed in 50 μl lysis buffer containing 25 mM Tris-phosphate (pH 7.8), 8 mM MgCl2, 1 mM DTT, 1% Triton X-100, and 7% glycerol during 15 min at RT in a horizontal shaker. Luciferase activity was measured using a GloMax 96 microplate luminometer (Promega) following the instructions of the luciferase assay kit (Promega, Madison, Wis., USA). […] The experiments for each concentration of the test items were done in triplicate wells.

[1] = system: normal human epidermal keratinocytes (NHEK); test: Cytotoxicity on NHEK monolayer cultures (MTT reduction assay and morphological observation); conditions: for Viability (%): single values
Experimental: To determine the cytotoxicity of flavonoid-5-O-α-L-rhamnosides tests were performed versus their aglycon derivatives in cell monolayer cultures. For this purpose concentrations ranging from 1 μM to 250 μM were chosen. The viability of normal human epidermal keratinocytes (NHEK) was twice evaluated by a MTT reduction assay and morphological observation with a microscope. NHEK were grown at 37° C. and 5% CO2 aeration in Keratinocyte-SFM medium supplemented with epidermal growth factor (EGF) at 0.25 ng/mL, pituitary extract (PE) at 25 μg/mL and gentamycin (25 μg/mL) for 24 h and were used at the 3rd passage. For cytotoxicity testing, pre-incubated NHEK were given fresh culture medium containing a specific concentration of test compound and incubated for 24 h. After a medium change at same test concentration cells were incubated a further 24 h until viability was determined. Test results are given in Table B2 and illustrated in FIG. 10.

HaCaT cells = test: Glucose uptake (2-NBDG) in HaCaT keratinocytes; set-up: key to Measure 1 / Measure 2 / Measure 3 / Mean: total green object integrated intensity, GCU×μm2×Well; conditions: +2NBDG 50 μM, 24 h; for Measure 1 / Measure 2 / Measure 3: HaCaT cells, fluorescence; for RFU specific: mean minus control; for Mean: mean of triplicate measurements; for % Glucose uptake: Rosiglitazone 80 μM = 100%
Experimental: HaCaT cells (5×10^4) were seeded in 96-well black plates and incubated for 24 h. Then, medium was removed and the cells cultivated in OptiMEM, labeled with 50 μM 2-NBDG (2-[N-(7-nitrobenz-2-oxa-1,3-diazol-4-yl) amino]-2-deoxy-D-glucose and treated with the test substances or the positive control, Rosiglitazone, for 24 h. Medium was removed and the wells were carefully washed with PBS and incubated in PBS (100l/well). Finally the fluorescence was measured using the Incucyte FLR software, the data were analyzed by the total green object integrated intensity (GCU×μm2×Well) of the imaging system IncuCyte HD (Essen BioScience). The fluorescence of Rosiglitazone is taken as 100% of glucose uptake, and the glucose uptake was calculated as (% Glucose uptake)=100(T−B)/(R−B), where T (treated) is the fluorescence of test substance-treated cells, B (Basal) is the fluorescence of 2-NBDG cells and […] is the fluorescence of cells treated with Rosiglitazone.

Compound: COc1ccc(-c2cc(=O)c3c(O)cc(O)cc3o2)cc1O [Diosmetin, 5,7-Trihydroxy-4′-methoxyflavone, reference compound]
- % Activation (STAT3; 50 μM test substance, +IFNγ 25 U/ml, IFNγ alone = 100% activation): 50.00%

Compound: COc1ccc(-c2coc3cc(O[C@@H]4OC(C)[C@H](O)C(O)C4O)cc(O[C@@H]4OC(C)[C@H](O)C(O)C4O)c3c2=O)cc1 (stereo partly drawn) [BR1, Biochanin A-5,7-di-O-α-L-rhamnoside]
- RLU 1 (NF-κB; 10 μM + 30 ng/ml TNFα): 259120 RLU
- RLU 2 (NF-κB; 10 μM + 30 ng/ml TNFα): 247590 RLU
- RLU 3 (NF-κB; 10 μM + 30 ng/ml TNFα): 229500 RLU
- RLU MEAN (NF-κB; 10 μM + 30 ng/ml TNFα): 245403 RLU
- RLU specific (NF-κB; 10 μM + 30 ng/ml TNFα): 222040 RLU
- % Activation (NF-κB; 10 μM + 30 ng/ml TNFα): 170.3%
- RLU 1 (NF-κB; 25 μM + 30 ng/ml TNFα): 211660 RLU
- RLU 2 (NF-κB; 25 μM + 30 ng/ml TNFα): 208010 RLU
- RLU 3 (NF-κB; 25 μM + 30 ng/ml TNFα): 203720 RLU
- RLU MEAN (NF-κB; 25 μM + 30 ng/ml TNFα): 207797 RLU
- RLU specific (NF-κB; 25 μM + 30 ng/ml TNFα): 184433 RLU
- % Activation (NF-κB; 25 μM + 30 ng/ml TNFα): 141.4%
- RLU 1 (STAT3; 25 μM + IFNγ 25 U/ml): 8162 RLU
- RLU 2 (STAT3; 25 μM + IFNγ 25 U/ml): 12819 RLU
- RLU 3 (STAT3; 25 μM + IFNγ 25 U/ml): 11157 RLU
- RLU MEAN (STAT3; 25 μM + IFNγ 25 U/ml): 10713 RLU
- RLU specific (STAT3; 25 μM + IFNγ 25 U/ml): 8878 RLU
- % Activation (STAT3; 25 μM + IFNγ 25 U/ml, IFNγ alone = 100): 110.41%
- RLU 1 (STAT3; 50 μM + IFNγ 25 U/ml): 12336 RLU
- RLU 2 (STAT3; 50 μM + IFNγ 25 U/ml): 11620 RLU
- RLU 3 (STAT3; 50 μM + IFNγ 25 U/ml): 12104 RLU
- RLU MEAN (STAT3; 50 μM + IFNγ 25 U/ml): 12020 RLU
- RLU specific (STAT3; 50 μM + IFNγ 25 U/ml): 10185 RLU
- % Activation (STAT3; 50 μM + IFNγ 25 U/ml, IFNγ alone = 100): 126.67%

Compound: COc1ccc(C2CC(=O)c3c(O)cc(O)cc3O2)cc1O (stereo not drawn) [Hesperetin, 3′,5,7-Trihydroxy-4′-methoxyflavanone]
- Viability (%) Mean ([1]; 1 μM): 105%
- Viability (%) ([1]; 1 μM): 103% and 106%
- Viability (%) Mean ([1]; 2.5 μM): 103%
- Viability (%) ([1]; 2.5 μM): 98% and 109%
- Viability (%) Mean ([1]; 5 μM): 106%
- Viability (%) ([1]; 5 μM): 107% and 106%
- Viability (%) Mean ([1]; 10 μM): 103%
- Viability (%) ([1]; 10 μM): 101% and 105%
- Viability (%) Mean ([1]; 25 μM): 108%
- Viability (%) ([1]; 25 μM): 106% and 109%
- Viability (%) Mean ([1]; 50 μM): 106%
- Viability (%) ([1]; 50 μM): 106%
- Viability (%) Mean ([1]; 100 μM): 99%
- Viability (%) ([1]; 100 μM): 98% and 100%
- Viability (%) Mean ([1]; 250 μM): 57%
- Viability (%) Mean ([1]; 250 μM, listed as hesperetin): about 50%
- Viability (%) ([1]; 250 μM): 54% and 59%

Compound: Chrysin-5-O-α-L-rhamnoside [CR2]
- RLU 1 (NF-κB; 10 μM + 30 ng/ml TNFα): 156600 RLU
- RLU 2 (NF-κB; 10 μM + 30 ng/ml TNFα): 160140 RLU
- RLU 3 (NF-κB; 10 μM + 30 ng/ml TNFα): 151070 RLU
- RLU MEAN (NF-κB; 10 μM + 30 ng/ml TNFα): 155937 RLU
- RLU specific (NF-κB; 10 μM + 30 ng/ml TNFα): 132573 RLU
- % Activation (NF-κB; 10 μM + 30 ng/ml TNFα): 101.7%
- RLU 1 (NF-κB; 25 μM + 30 ng/ml TNFα): 170390 RLU
- RLU 2 (NF-κB; 25 μM + 30 ng/ml TNFα): 179220 RLU
- RLU 3 (NF-κB; 25 μM + 30 ng/ml TNFα): 163490 RLU
- RLU MEAN (NF-κB; 25 μM + 30 ng/ml TNFα): 171033 RLU
- RLU specific (NF-κB; 25 μM + 30 ng/ml TNFα): 147670 RLU
- % Activation (NF-κB; 25 μM + 30 ng/ml TNFα): 113.2%
- Measure 1 (HaCaT cells; 25 μM test substance): 427937
- Measure 2 (HaCaT cells; 25 μM test substance): 431593
- Measure 3 (HaCaT cells; 25 μM test substance): 390512
- RFU specific (HaCaT cells; 25 μM test substance): 410367 RFU
- Mean (HaCaT cells; 25 μM test substance): 416681
- % Glucose uptake (HaCaT cells; 25 μM test substance): 47.2%
- Measure 1 (HaCaT cells; 50 μM test substance): 771478
- Measure 2 (HaCaT cells; 50 μM test substance): 1100390
- Measure 3 (HaCaT cells; 50 μM test substance): 923151
- RFU specific (HaCaT cells; 50 μM test substance): 925359 RFU
- Mean (HaCaT cells; 50 μM test substance): 931673
- % Glucose uptake (HaCaT cells; 50 μM test substance): 106.5%
